US8835432B2, “Heterocyclic compounds and their uses” (Amgen Inc., priority 2012, dated 2014)

What was measured:
[1] = test system: model of systemic lupus erythematosis; details: in vivo; cited from earlier work
[2] = test system: mouse model of rheumatoid arthritis; details: in vivo; cited from earlier work
PI3Kb [3] = target: T1, PI3Kb (Homo sapiens, UniProt P42338); experiment: In vitro enzyme assay, PI3K beta; format: biochemical; design: Full length p110 subunits of PI3k α, β and δ, N-terminally labeled with polyHis tag; polyHis (N); made in house; host or cells: Sf9 insect cells (baculovirus); details: read-out: P13K b IC50
T1 sequence (P42338 whole entry, the tested form may be a part): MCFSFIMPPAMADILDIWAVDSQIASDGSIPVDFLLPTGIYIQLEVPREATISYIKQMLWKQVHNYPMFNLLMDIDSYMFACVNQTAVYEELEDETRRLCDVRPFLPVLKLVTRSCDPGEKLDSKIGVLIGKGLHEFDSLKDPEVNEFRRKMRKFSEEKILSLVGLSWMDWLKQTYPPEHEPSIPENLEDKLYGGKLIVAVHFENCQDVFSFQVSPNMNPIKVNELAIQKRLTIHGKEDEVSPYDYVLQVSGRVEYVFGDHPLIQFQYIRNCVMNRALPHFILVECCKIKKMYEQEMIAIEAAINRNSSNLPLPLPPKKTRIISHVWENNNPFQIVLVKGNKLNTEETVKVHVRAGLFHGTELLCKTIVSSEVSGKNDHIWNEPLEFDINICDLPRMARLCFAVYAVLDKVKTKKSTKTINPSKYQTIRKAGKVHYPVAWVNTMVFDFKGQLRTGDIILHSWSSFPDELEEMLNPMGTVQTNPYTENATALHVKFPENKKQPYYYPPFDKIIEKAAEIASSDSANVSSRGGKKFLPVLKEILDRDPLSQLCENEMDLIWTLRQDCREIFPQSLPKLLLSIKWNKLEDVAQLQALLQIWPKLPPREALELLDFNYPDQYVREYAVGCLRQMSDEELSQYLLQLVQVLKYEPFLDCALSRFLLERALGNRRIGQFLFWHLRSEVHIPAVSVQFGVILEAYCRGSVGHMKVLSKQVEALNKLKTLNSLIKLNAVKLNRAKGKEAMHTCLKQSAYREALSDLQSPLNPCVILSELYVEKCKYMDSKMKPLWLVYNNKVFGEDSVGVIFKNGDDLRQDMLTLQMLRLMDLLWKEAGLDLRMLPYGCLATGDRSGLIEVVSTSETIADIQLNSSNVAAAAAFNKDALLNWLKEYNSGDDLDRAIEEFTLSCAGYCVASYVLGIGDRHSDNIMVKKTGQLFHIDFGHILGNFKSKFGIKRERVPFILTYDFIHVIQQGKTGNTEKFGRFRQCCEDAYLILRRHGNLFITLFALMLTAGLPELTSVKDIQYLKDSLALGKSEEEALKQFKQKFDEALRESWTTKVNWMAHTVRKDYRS
T1 sequence (P27986 whole entry partner, the tested form may be a part): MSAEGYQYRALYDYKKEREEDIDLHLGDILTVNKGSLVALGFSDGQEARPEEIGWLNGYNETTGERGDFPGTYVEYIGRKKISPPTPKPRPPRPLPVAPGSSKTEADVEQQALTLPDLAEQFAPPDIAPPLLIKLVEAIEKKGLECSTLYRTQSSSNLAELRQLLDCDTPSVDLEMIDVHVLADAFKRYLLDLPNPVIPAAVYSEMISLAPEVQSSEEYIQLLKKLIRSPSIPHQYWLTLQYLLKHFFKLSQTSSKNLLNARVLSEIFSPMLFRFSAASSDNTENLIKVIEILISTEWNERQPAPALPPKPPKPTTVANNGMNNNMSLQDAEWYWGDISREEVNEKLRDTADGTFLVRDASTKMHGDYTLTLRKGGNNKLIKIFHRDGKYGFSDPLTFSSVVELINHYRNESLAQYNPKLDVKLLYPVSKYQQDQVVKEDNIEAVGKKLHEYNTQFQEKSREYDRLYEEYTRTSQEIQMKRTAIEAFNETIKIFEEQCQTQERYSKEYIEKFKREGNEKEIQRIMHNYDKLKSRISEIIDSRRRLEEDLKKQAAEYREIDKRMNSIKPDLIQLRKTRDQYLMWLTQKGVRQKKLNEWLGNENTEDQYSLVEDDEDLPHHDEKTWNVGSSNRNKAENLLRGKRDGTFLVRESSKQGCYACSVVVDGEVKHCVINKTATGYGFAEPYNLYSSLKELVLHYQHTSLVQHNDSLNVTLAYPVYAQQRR
Method: (§1) Full length p110 subunits of PI3k α, β and δ, N-terminally labeled with polyHis tag, were coexpressed with p85 with Baculo virus expression vectors in sf9 insect cells. P110/p85 heterodimers were purified by sequential Ni-NTA, Q-HP, Superdex-100 chromatography. Purified α, β and δ isozymes were stored at −20° C. in 20 mM Tris, pH 8, 0.2M NaCl, 50% glycerol, 5 mM DTT, 2 mM Na cholate. Truncated PI3Kγ, residues 114-1102, N-terminally labeled with polyHis tag, was expressed with Baculo virus in Hi5 insect cells. The γ isozyme was purified by sequential Ni-NTA, Superdex-200, Q-HP chromatography. The γ isozyme was stored frozen at −80° C. in NaH2PO4, pH 8, 0.2M NaCl, 1% ethylene glycol, 2 mM β-mercaptoethanol.
(§2) Assays were performed in 25 μL with the above final concentrations of components in white polyproplyene plates (Costar 3355). Phospatidyl inositol phosphoacceptor, PtdIns(4,5)P2 P4508, was from Echelon Biosciences. The ATPase activity of the alpha and gamma isozymes was not greatly stimulated by PtdIns(4,5)P2 under these conditions and was therefore omitted from the assay of these isozymes. Test compounds were dissolved in dimethyl sulfoxide and diluted with three-fold serial dilutions. The compound in DMSO (1 μL) was added per test well, and the inhibition relative to reactions containing no compound, with and without enzyme was determined After assay incubation at rt, the reaction was stopped and residual ATP determined by addition of an equal volume of a commercial ATP bioluminescence kit (Perkin Elmer EasyLite) according to the manufacturer's instructions, and detected using a AnalystGT luminometer.

PI3KIII = target: T2, PI3KIII (Homo sapiens, UniProt Q8NEB9); experiment: Class III PI(3)P assay (U20S EGFP-2XFYVE cells); format: cell-based
T2 construct: host or cells: U2OS EGFP-2XFYVE cells
T2 sequence (Q8NEB9 whole entry): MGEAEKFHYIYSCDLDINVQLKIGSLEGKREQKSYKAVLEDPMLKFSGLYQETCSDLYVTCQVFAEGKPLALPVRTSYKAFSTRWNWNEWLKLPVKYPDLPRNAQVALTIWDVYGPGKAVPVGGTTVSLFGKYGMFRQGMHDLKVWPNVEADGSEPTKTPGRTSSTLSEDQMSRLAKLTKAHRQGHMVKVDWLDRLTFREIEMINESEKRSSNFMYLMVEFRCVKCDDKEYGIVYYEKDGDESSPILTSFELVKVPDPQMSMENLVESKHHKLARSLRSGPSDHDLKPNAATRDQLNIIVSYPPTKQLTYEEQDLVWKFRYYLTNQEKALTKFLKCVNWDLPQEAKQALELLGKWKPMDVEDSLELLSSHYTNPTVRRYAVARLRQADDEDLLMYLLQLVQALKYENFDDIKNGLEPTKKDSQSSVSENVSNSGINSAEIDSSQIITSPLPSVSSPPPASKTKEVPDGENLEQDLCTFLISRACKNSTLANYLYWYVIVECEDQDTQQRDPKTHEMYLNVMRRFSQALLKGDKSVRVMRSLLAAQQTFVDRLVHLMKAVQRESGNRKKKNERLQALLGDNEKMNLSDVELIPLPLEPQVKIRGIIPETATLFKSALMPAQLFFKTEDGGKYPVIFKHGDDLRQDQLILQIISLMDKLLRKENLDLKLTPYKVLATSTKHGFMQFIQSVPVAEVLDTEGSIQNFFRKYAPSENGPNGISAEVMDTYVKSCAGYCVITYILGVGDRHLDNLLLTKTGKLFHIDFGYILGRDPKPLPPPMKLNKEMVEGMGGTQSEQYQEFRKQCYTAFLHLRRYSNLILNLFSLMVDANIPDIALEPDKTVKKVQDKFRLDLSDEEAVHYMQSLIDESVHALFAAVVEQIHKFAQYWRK
Method: (§3) GFP Assays for Detecting Inhibition of Class Ia and Class III PI3K
FYVE domains bind to PI(3)P. the majority is generated by constitutive action of PI3K Class III
Class III PI(3)P assay (U20S EGFP-2XFYVE Cells/GE Healthcare)
Wash cells with assay buffer. Treat with compounds in assay buffer 1 h. Fix and image.
Control for all 3 assays is […] Wortmannin:
PI(3)P depleted from endosomes

PI3K b = experiment: In vitro enzyme assay, PI3K beta; format: biochemical; details: ratio of beta to delta IC50
Method: as §1, §2

PI3Kg = target: T3, PI3Kg (Homo sapiens, UniProt P48736); experiment: In vitro enzyme assay, PI3K gamma; format: biochemical; details: for PI3K: g/d: ratio of gamma to delta IC50
T3 construct: Truncated PI3Kγ, residues 114-1102, N-terminally labeled with polyHis tag; polyHis (N); made in house; host or cells: Hi5 insect cells (baculovirus)
T3 sequence (P48736 114-1102): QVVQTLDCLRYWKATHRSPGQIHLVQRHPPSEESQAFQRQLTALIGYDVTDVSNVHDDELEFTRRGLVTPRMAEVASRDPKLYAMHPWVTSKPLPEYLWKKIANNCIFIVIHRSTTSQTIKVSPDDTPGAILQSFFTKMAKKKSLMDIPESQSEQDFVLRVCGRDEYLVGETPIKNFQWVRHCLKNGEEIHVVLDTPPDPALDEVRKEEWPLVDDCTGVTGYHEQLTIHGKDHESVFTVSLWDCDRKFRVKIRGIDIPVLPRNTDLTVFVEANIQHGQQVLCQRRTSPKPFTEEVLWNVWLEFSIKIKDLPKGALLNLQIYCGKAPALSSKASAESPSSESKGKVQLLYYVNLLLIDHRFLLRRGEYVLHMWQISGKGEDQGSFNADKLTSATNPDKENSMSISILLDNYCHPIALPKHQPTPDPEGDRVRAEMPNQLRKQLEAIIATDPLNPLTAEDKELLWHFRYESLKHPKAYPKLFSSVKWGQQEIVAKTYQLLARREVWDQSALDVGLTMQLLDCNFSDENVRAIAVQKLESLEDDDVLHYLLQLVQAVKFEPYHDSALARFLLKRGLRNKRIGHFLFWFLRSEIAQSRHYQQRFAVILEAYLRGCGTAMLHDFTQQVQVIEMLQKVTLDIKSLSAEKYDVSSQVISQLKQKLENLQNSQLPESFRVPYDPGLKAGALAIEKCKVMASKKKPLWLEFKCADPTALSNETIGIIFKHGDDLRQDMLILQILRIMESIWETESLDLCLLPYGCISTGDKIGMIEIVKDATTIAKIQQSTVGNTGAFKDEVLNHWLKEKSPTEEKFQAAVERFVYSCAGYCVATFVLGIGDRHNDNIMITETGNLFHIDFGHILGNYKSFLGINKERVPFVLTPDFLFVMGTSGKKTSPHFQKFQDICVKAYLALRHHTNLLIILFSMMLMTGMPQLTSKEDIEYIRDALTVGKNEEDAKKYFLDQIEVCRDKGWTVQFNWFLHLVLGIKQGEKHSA
Method: as §1, §2

PI3Kb [4] = target: T1, PI3Kb; experiment: Forkhead translocation assay (MDA MB468 Forkhead-DiversaGFP cells); format: cell-based; design: endogenous in cells; host or cells: MDA MB468 (Forkhead-DiversaGFP) cells; details: first value of the cell; MDA468 forkhead; read-out: PI3KbMDA468 FH
Method: as §3
Forkhead (FKHRL1) is a substrate for AKT1. It is cytoplasmic when phosphorylated by AKT (survival/growth). Inhibition of AKT (stasis/apoptosis)-forkhead translocation to the nucleus
Forkhead Translocation Assay (MDA MB468 Forkhead-DiversaGFP Cells)
Treat cells with compound in growth medium 1 h. Fix and image.

PI3Ka = target: T4, PI3Ka (Homo sapiens, UniProt P42336); experiment: In vitro enzyme assay, PI3K alpha; format: biochemical; details: for PI3K: a/d: ratio of alpha to delta IC50
T4 construct: Full length p110 subunits of PI3k α, β and δ, N-terminally labeled with polyHis tag; polyHis (N); made in house; host or cells: Sf9 insect cells (baculovirus)
Method: as §1, §2

pAKT = pAKT in vivo assay; details: mice, p.o.; for in vivo pAKT data, ED50 (uM) WB: first value of the cell; for in vivo pAKT data, ED50 (uM) spleenocytes: second value of the cell
Method: Vehicle and compounds are administered p.o. (0.2 mL) by gavage (Oral Gavage Needles Popper & Sons, New Hyde Park, N.Y.) to mice (Transgenic Line 3751, female, 10-12 wks Amgen Inc, Thousand Oaks, Calif.) 15 min prior to the injection i.v (0.2 mLs) of anti-IgM FITC (50 ug/mouse) (Jackson Immuno Research, West Grove, Pa.). After 45 min the mice are sacrificed within a CO2 chamber. Blood is drawn via cardiac puncture (0.3 mL) (1cc 25 g Syringes, Sherwood, St. Louis, Mo.) and transferred into a 15 mL conical vial (Nalge/Nunc International, Denmark). Blood is immediately fixed with 6.0 mL of BD Phosflow Lyse/Fix Buffer (BD Bioscience, San Jose, Calif.), inverted 3X's and placed in 37° C. water bath. Half of the spleen is removed and transferred to an eppendorf tube containing 0.5 mL of PBS (Invitrogen Corp, Grand Island, N.Y.). The spleen is crushed using a tissue grinder (Pellet Pestle, Kimble/Kontes, Vineland, N.J.) and immediately fixed with 6.0 mL of BD Phosflow Lyse/Fix buffer, inverted 3X's and placed in 37° C. water bath. Once tissues have been collected the mouse is cervically-dislocated and carcass to disposed. After 15 min, the 15 mL conical vials are removed from the 37° C. water bath and placed on ice until tissues are further processed. Crushed spleens are filtered through a 70 μm cell strainer (BD Bioscience, Bedford, Mass.) into another 15 mL conical vial and washed with 9 mL of PBS. Splenocytes and blood are spun @ 2,000 rpms for 10 min (cold) and buffer is aspirated. Cells are resuspended in 2.0 mL of cold (−20° C.) 90% methyl alcohol (Mallinckrodt Chemicals, Phillipsburg, N.J.). MeOH is slowly added while conical vial is rapidly vortexed. Tissues are then stored at −20° C. until cells can be stained for FACS analysis.

mu splenocytes pAKT = experiment: on target anti-IgM mu splenocytes pAKT; format: cell-based; details: Mus musculus, Splenocyte, read-out: on target anti-IgM mu splenocytes pAKT (Hu splenocytes PAKT)
PI3K d = target: T5, PI3K d (Homo sapiens, UniProt O00329); experiment: In vitro enzyme assay, PI3K delta; format: biochemical
T5 construct: Full length p110 subunits of PI3k α, β and δ, N-terminally labeled with polyHis tag; polyHis (N); made in house; host or cells: Sf9 insect cells (baculovirus)
T5 sequence (O00329 whole entry): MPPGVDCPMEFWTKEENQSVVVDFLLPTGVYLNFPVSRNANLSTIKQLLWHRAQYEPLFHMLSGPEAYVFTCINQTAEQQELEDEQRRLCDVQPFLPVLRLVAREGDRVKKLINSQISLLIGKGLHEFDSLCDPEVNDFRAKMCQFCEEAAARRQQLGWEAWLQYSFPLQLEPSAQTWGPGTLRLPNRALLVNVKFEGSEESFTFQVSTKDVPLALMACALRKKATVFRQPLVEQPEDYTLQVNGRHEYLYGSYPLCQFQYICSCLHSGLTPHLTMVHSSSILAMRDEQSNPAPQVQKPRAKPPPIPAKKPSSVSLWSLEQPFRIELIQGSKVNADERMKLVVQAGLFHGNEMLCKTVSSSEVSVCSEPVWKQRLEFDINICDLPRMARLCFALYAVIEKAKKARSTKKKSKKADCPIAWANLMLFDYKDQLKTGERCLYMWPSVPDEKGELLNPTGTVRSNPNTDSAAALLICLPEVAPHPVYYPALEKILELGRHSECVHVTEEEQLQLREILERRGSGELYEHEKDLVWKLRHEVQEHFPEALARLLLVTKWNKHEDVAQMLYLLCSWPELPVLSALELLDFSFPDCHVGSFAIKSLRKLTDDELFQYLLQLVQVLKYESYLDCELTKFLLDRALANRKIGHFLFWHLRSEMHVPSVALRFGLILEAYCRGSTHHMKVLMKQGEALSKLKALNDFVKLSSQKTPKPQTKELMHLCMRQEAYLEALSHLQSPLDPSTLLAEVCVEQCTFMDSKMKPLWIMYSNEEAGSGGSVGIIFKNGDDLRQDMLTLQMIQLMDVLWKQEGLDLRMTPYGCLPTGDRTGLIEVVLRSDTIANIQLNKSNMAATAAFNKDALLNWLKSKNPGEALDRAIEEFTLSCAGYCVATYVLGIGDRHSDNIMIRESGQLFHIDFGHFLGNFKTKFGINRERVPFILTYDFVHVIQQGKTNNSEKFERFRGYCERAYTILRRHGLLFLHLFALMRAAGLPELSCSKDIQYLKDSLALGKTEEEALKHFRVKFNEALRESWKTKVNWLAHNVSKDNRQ
T5 sequence (P27986 whole entry partner): as the sequence (P27986 whole entry partner, the tested form may be a part) above
Method: as §1, §2

PI3Kb [5] = target: T1, PI3Kb; experiment: PI3Kb MB MDA468 cell assay; format: cell-based; design: endogenous in cells; host or cells: MDA MB468 (Forkhead-DiversaGFP) cells; details: second value of the cell; read-out: PI3KbMBMDA468

Row | SMILES | IC50 (PI3Kb [3]) [nM] | IC50 (PI3KIII) [nM] | PI3K: b/d (PI3K b) | IC50 (PI3Kg) [nM] | PI3K: g/d (PI3Kg) | IC50 (PI3Kb [4]) [nM] | PI3Ka IC50 (PI3Ka) [nM] | PI3K: a/d (PI3Ka) | IC50 (mu splenocytes pAKT) [nM] | IC50 (PI3K d) [nM] | IC50 (PI3Kb [5]) [nM] | onset of disease in a model of systemic lupus erythematosis [1] | efficacy in a mouse model of rheumatoid arthritis [2] | in vivo pAKT data, ED50 (uM) WB (pAKT) | in vivo pAKT data, ED50 (uM) spleenocytes (pAKT) [uM]
1 | O=C1NC(=O)/C(=C\c2ccc3nccnc3c2)S1 [AS 605240] |  |  |  |  |  |  |  |  |  |  |  | delay onset of disease | efficacious |  | 
2 | C[C@H](Nc1ncnc(N)c1C#N)c1cc2cccc(F)c2nc1-c1ccccc1S(C)(=O)=O [Example 1, 4-amino-6-(((1S)-1-(8-fluoro-2-(2-(methylsulfonyl)phenyl)-3-quinolinyl)-ethyl)amino)-5-pyrimidinecarbonitrile] | 4740 | > 10000 | 1580 | 1610 | 537 | 5970 | 9980 | 3327 | 2.2 | 3 | 2600 |  |  | 0.041 uM | 0.010
3 | C[C@H](Nc1ncnc(N)c1C#N)c1cc2ccc(F)cc2nc1-c1ccccc1S(C)(=O)=O [Example 2, (S)-4-amino-6-((1-(7-fluoro-2-(2-(methylsulfonyl)phenyl)quinolin-3-yl)ethyl)-amino)pyrimidine-5-carbonitrile] | 1360 | > 10000 | 174 | 804 | 103 | > 10000 | 7040 | 903 | 1.2 | 7.8 | 811 |  |  | 0.36 uM | 0.26
4 | C[C@H](Nc1ncnc(N)c1C#N)c1nc2cccc(C#N)c2nc1-c1ccccc1S(C)(=O)=O [Example 6, 2-((S)-1-(6-amino-5-cyanopyrimidin-4-ylamino)ethyl)-3-(2-(methylsulfonyl)-phenyl)quinoxaline-5-carbonitrile] | 5800 | > 10000 | 829 | 2800 | 400 |  | 25000 | 3571 | 6 | 7 | 11000 |  |  | 0.13 (WB) uM | 

Continued, in another order:

Row | IC50 (PI3Kb [3]) [nM] | IC50 (PI3KIII) [nM] | PI3K: b/d (PI3K b) | IC50 (PI3Kg) [nM] | PI3K: g/d (PI3Kg) | IC50 (PI3Kb [4]) [nM] | PI3Ka IC50 (PI3Ka) [nM] | PI3K: a/d (PI3Ka) | IC50 (mu splenocytes pAKT) [nM] | IC50 (PI3K d) [nM] | IC50 (PI3Kb [5]) [nM] | SMILES | onset of disease in a model of systemic lupus erythematosis [1] | efficacy in a mouse model of rheumatoid arthritis [2] | in vivo pAKT data, ED50 (uM) WB (pAKT) | in vivo pAKT data, ED50 (uM) spleenocytes (pAKT) [uM]
5 | 434 | > 10000 | 85 | 62.9 | 12 | 3800 | 3420 | 671 | 1.5 | 5.1 | 483 | C[C@H](Nc1ncnc(N)c1C#N)c1cc2ccc(F)cc2nc1-c1cccc(F)c1 [Example 3, 4-amino-6-((S)-1-(7-fluoro-2-(3-fluorophenyl)quinolin-3-yl)ethylamino)-pyrimidine-5-carbonitrile] |  |  |  | 
6 | 522 | > 10000 | 52 | 448 | 45 | 1950 | 12060 | 1206 | 1.8 | 10 | 620 | C[C@H](Nc1ncnc(N)c1C#N)c1cc2ccc(F)cc2nc1-c1ccccn1 [Example 4, 4-amino-6-((S)-1-(7-fluoro-2-(pyridin-2-yl)quinolin-3-yl)ethylamino)-pyrimidine-5-carbonitrile] |  |  |  | 
7 | 652 | > 10000 | 251 | 620 | 238 | > 10000 | 5160 | 1985 | 5 | 2.6 | > 10000 | C[C@H](Nc1ncnc(N)c1C#N)c1nc2cccc(Cl)c2nc1-c1ccccc1S(C)(=O)=O [Example 5, (S)-4-amino-6-((1-(5-chloro-3-(2-(methylsulfonyl)phenyl)quinoxalin-2-yl)-ethyl)amino)pyrimidine-5-carbonitrile] |  |  | 0.056 uM | 0.012
